# Compound: CC(C)C[C@@H](C(=O)N[C@H](C(=O)OC1CCCC1)c1ccccc1)[C@H](O)C(=O)NO [Tosedostat] + COc1cccc2cc(-c3nc([C@H]4CC[C@H](C(=O)O)CC4)n4ncnc(N)c34)[nH]c12 [OSI-027] (partner 0.5 µM)
# Test: relative viability (nuclei count vs DMSO), 5 days (fraction); higher = more cells survive
# Settings: first compound 0.02 µM
# How it was run: (§1)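 Relative viability was taken as the ratio of nuclei in treated wells to nuclei in vehicle wells. Lung cancer cell lines in 1536-well plates received compounds by pin tool one day after seeding, either one drug alone or a fixed anchor-drug dose plus five library-drug doses (not always all listed) in √10 steps. Nuclei were counted on 4× images after 5 days of treatment, and values are medians of duplicate plates.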
row,Cell Line,relative viability
1,HCC-78,0.33
2,NCI-H647,0.541
3,LCLC-97TM1,0.603
4,NCI-H2126,0.714
5,A-427,0.437
6,NCI-H650,0.611
7,RERF-LC-KJ,0.588
8,NCI-H1915,0.659
9,NCI-H661,0.706
10,NCI-H441,0.609
11,NCI-H1975,0.822
12,NCI-H1395,0.59
13,201T,0.761
14,NCI-H2023,0.431
15,HCC-827,0.701

# Same assay, conditions: first compound 0.06325 µM
row,Cell Line,relative viability
1,NCI-H1755,0.731
2,NCI-H838,0.413
3,LK-2,0.214
4,NCI-H2347,0.203
5,NCI-H2342,0.708
6,SK-MES-1,0.59
7,H3255,0.522
8,COR-L23,0.746
9,COR-L 105,0.731
10,LU99A,0.286
11,ChaGo-K-1,0.525
12,NCI-H2170,0.738
13,NCI-H460,0.604
14,HOP-62,0.813
15,HCC-44,0.592
16,SW 900,0.505
17,LXF-289,0.799

row,Cell Line,relative viability
1,BEN,0.292
2,HARA,0.492
3,HCC-78,0.377
4,NCI-H647,0.667
5,LCLC-97TM1,0.451
6,NCI-H2126,0.786
7,A-427,0.548
8,NCI-H650,0.5
9,RERF-LC-KJ,0.586
10,NCI-H1915,0.614
11,NCI-H661,0.767
12,NCI-H441,0.593
13,NCI-H1975,0.743
14,NCI-H1395,0.618
15,201T,0.818
16,NCI-H2023,0.383
17,HCC-827,0.728

# Same assay, conditions: first compound 0.2 µM
row,Cell Line,relative viability
1,NCI-H1755,0.642
2,NCI-H838,0.445
3,LK-2,0.239
4,NCI-H2347,0.459
5,NCI-H2342,0.632
6,SK-MES-1,0.595
7,H3255,0.603
8,COR-L23,0.69
9,COR-L 105,0.647
10,LU99A,0.292
11,ChaGo-K-1,0.577
12,NCI-H2170,0.736
13,NCI-H460,0.595
14,HOP-62,0.885
15,HCC-44,0.384
16,SW 900,0.544
17,LXF-289,0.808

row,Cell Line,relative viability
1,BEN,0.286
2,HARA,0.421
3,HCC-78,0.406
4,NCI-H647,0.515
5,LCLC-97TM1,0.442
6,NCI-H2126,0.622
7,A-427,0.534
8,NCI-H650,0.454
9,RERF-LC-KJ,0.486
10,NCI-H1915,0.643
11,NCI-H661,0.714
12,NCI-H441,0.632
13,NCI-H1975,0.708
14,NCI-H1395,0.644
15,201T,0.755
16,NCI-H2023,0.328
17,HCC-827,0.773

# Same assay, conditions: first compound 0.6325 µM
row,Cell Line,relative viability
1,NCI-H1755,0.674
2,NCI-H838,0.503
3,LK-2,0.219
4,NCI-H2347,0.353
5,NCI-H2342,0.576
6,SK-MES-1,0.538
7,H3255,0.513
8,COR-L23,0.65
9,COR-L 105,0.606
10,LU99A,0.312
11,ChaGo-K-1,0.617
12,NCI-H2170,0.773
13,NCI-H460,0.647
14,HOP-62,0.671
15,HCC-44,0.513
16,SW 900,0.476
17,LXF-289,0.692

row,Cell Line,relative viability
1,BEN,0.31
2,HARA,0.447
3,HCC-78,0.364
4,NCI-H647,0.4
5,LCLC-97TM1,0.418
6,NCI-H2126,0.614
7,A-427,0.484
8,NCI-H650,0.455
9,RERF-LC-KJ,0.452
10,NCI-H1915,0.585
11,NCI-H661,0.648
12,NCI-H441,0.433
13,NCI-H1975,0.552
14,NCI-H1395,0.672
15,201T,0.949
16,NCI-H2023,0.251
17,HCC-827,0.526

# Same assay, conditions: first compound 2 µM
row,Cell Line,relative viability
1,NCI-H1755,0.463
2,NCI-H838,0.404
3,LK-2,0.199
4,NCI-H2347,0.427
5,NCI-H2342,0.599
6,SK-MES-1,0.396
7,H3255,0.509
8,COR-L23,0.64
9,COR-L 105,0.62
10,LU99A,0.249
11,ChaGo-K-1,0.498
12,NCI-H2170,0.571
13,NCI-H460,0.679
14,HOP-62,0.664
15,HCC-44,0.374
16,SW 900,0.322
17,LXF-289,0.561

row,Cell Line,relative viability
1,BEN,0.326
2,HARA,0.382
3,HCC-78,0.376
4,NCI-H647,0.585
5,LCLC-97TM1,0.497
6,NCI-H2126,0.583
7,A-427,0.406
8,NCI-H650,0.364
9,RERF-LC-KJ,0.418
10,NCI-H1915,0.532
11,NCI-H661,0.561
12,NCI-H441,0.437
13,NCI-H1975,0.424
14,NCI-H1395,0.621
15,201T,0.718
16,NCI-H2023,0.231
17,HCC-827,0.644

# Compound: CC(C)C[C@@H](C(=O)N[C@H](C(=O)OC1CCCC1)c1ccccc1)[C@H](O)C(=O)NO [Tosedostat] + CC(=O)c1c(C)c2cnc(Nc3ccc(N4CCNCC4)cn3)nc2n(C2CCCC2)c1=O [Palbociclib] (partner 0.5 µM)
# Test: as above
# Settings: first compound 0.02 µM
# How it was run: as §1
row,Cell Line,relative viability
1,NCI-H1755,0.472
2,NCI-H838,0.243
3,LK-2,0.768
4,NCI-H2347,0.411
5,NCI-H2342,0.536
6,SK-MES-1,0.305
7,H3255,0.303
8,COR-L23,0.389
9,COR-L 105,0.402
10,LU99A,0.428
11,ChaGo-K-1,1.01
12,NCI-H2170,0.399
13,NCI-H460,0.192
14,HOP-62,0.478
15,HCC-44,1.05
16,SW 900,0.446
17,LXF-289,0.653

row,Cell Line,relative viability
1,BEN,0.454
2,HARA,0.325
3,HCC-78,0.502
4,NCI-H647,0.401
5,LCLC-97TM1,0.227
6,NCI-H2126,0.328
7,A-427,0.501
8,NCI-H650,0.31
9,RERF-LC-KJ,1.23
10,NCI-H1915,0.41
11,NCI-H661,0.428
12,NCI-H441,0.188
13,NCI-H1975,0.574
14,NCI-H1395,0.63
15,201T,0.362
16,NCI-H2023,0.333
17,HCC-827,0.421

# Same assay, conditions: first compound 0.06325 µM
row,Cell Line,relative viability
1,NCI-H1755,0.47
2,NCI-H838,0.219
3,LK-2,0.702
4,NCI-H2347,0.451
5,NCI-H2342,0.507
6,SK-MES-1,0.3
7,H3255,0.32
8,COR-L23,0.357
9,COR-L 105,0.43
10,LU99A,0.449
11,ChaGo-K-1,0.907
12,NCI-H2170,0.394
13,NCI-H460,0.203
14,HOP-62,0.467
15,HCC-44,0.982
16,SW 900,0.462
17,LXF-289,0.608

row,Cell Line,relative viability
1,BEN,0.463
2,HARA,0.255
3,HCC-78,0.46
4,NCI-H647,0.344
5,LCLC-97TM1,0.184
6,NCI-H2126,0.352
7,A-427,0.514
8,NCI-H650,0.342
9,RERF-LC-KJ,1.04
10,NCI-H1915,0.512
11,NCI-H661,0.432
12,NCI-H441,0.258
13,NCI-H1975,0.53
14,NCI-H1395,0.661
15,201T,0.367
16,NCI-H2023,0.331
17,HCC-827,0.536

# Same assay, conditions: first compound 0.2 µM
row,Cell Line,relative viability
1,NCI-H1755,0.465
2,NCI-H838,0.216
3,LK-2,0.721
4,NCI-H2347,0.407
5,NCI-H2342,0.578
6,SK-MES-1,0.353
7,H3255,0.342
8,COR-L23,0.338
9,COR-L 105,0.398
10,LU99A,0.476
11,ChaGo-K-1,0.87
12,NCI-H2170,0.393
13,NCI-H460,0.11
14,HOP-62,0.463
15,HCC-44,1.01
16,SW 900,0.479
17,LXF-289,0.612

row,Cell Line,relative viability
1,BEN,0.537
2,HARA,0.262
3,HCC-78,0.41
4,NCI-H647,0.388
5,LCLC-97TM1,0.185
6,NCI-H2126,0.352
7,A-427,0.55
8,NCI-H650,0.291
9,RERF-LC-KJ,0.845
10,NCI-H1915,0.554
11,NCI-H661,0.491
12,NCI-H441,0.242
13,NCI-H1975,0.561
14,NCI-H1395,0.596
15,201T,0.372
16,NCI-H2023,0.368
17,HCC-827,0.505

# Same assay, conditions: first compound 0.6325 µM
row,Cell Line,relative viability
1,NCI-H1755,0.503
2,NCI-H838,0.261
3,LK-2,0.739
4,NCI-H2347,0.494
5,NCI-H2342,0.524
6,SK-MES-1,0.355
7,H3255,0.331
8,COR-L23,0.277
9,COR-L 105,0.357
10,LU99A,0.376
11,ChaGo-K-1,0.858
12,NCI-H2170,0.406
13,NCI-H460,0.146
14,HOP-62,0.462
15,HCC-44,0.983
16,SW 900,0.479
17,LXF-289,0.665

row,Cell Line,relative viability
1,BEN,0.497
2,HARA,0.232
3,HCC-78,0.486
4,NCI-H647,0.427
5,LCLC-97TM1,0.221
6,NCI-H2126,0.352
7,A-427,0.494
8,NCI-H650,0.35
9,RERF-LC-KJ,0.755
10,NCI-H1915,0.523
11,NCI-H661,0.507
12,NCI-H441,0.23
13,NCI-H1975,0.432
14,NCI-H1395,0.709
15,201T,0.38
16,NCI-H2023,0.344
17,HCC-827,0.466

# Same assay, conditions: first compound 2 µM
row,Cell Line,relative viability
1,NCI-H1755,0.423
2,NCI-H838,0.256
3,LK-2,0.909
4,NCI-H2347,0.4
5,NCI-H2342,0.61
6,SK-MES-1,0.302
7,H3255,0.319
8,COR-L23,0.288
9,COR-L 105,0.392
10,LU99A,0.325
11,ChaGo-K-1,0.671
12,NCI-H2170,0.393
13,NCI-H460,0.128
14,HOP-62,0.439
15,HCC-44,0.928
16,SW 900,0.466
17,LXF-289,0.625

row,Cell Line,relative viability
1,BEN,0.465
2,HARA,0.265
3,HCC-78,0.495
4,NCI-H647,0.502
5,LCLC-97TM1,0.194
6,NCI-H2126,0.352
7,A-427,0.507
8,NCI-H650,0.295
9,RERF-LC-KJ,0.859
10,NCI-H1915,0.495
11,NCI-H661,0.493
12,NCI-H441,0.186
13,NCI-H1975,0.415
14,NCI-H1395,0.596
15,201T,0.377
16,NCI-H2023,0.424
17,HCC-827,0.502

# Source: the supplement of paper PMC10307832
